Tests used:
MC38 syngeneic model = test: Combination therapy with anti CTLA-4 in MC38 syngeneic model; assay type: in vivo, C57BL/6 mouse
Protocol: In order to confirm the synergistic efficacy of the combination therapy of the compounds of Examples of the present invention and a cancer immunotherapy agent (anti CTLA-4) in a syngeneic animal model transplanted with a mouse colorectal cancer cell line, a cancer cell growth inhibition experiment was conducted in the MC38 syngeneic model. Specific experimental methods are as follows. The frozen MC38 cell line was thawed and cultured in DMEM (Dulbecco's modified Eagle's medium) supplemented with 10% FBS and 1% penicillin-streptomycin in a 37° C., 5% CO2 incubator. The thawed cells were cultured for more than one week, and subcultured at intervals of 2-3 days, confirming that there was no infection with bacteria, yeast (cell image) and mycoplasma. The cells were stained with trypan blue, and those having a survival rate of 90% or more were used for transplantation. The cells were suspended using trypsin-EDTA and then suspended in cold PBS. MC38 cells (1×10^5 cells/150 μl) were subcutaneously transplanted under the right scapula of the C57BL/6 mouse, which had been acclimated for about 1 week. From the 3rd day after the transplantation, tumor formation and growth were observed, and the volume of the tumor was calculated according to the following equation using the measured tumor length. [Tumor volume=(a^2b)/2, a: short diameter, b: long diameter] When the average tumor volume of all mice on the day after tumor transplantation was 80±20 mm^3, the mice were grouped by paired-matching. Drugs were dissolved in 40% polyethylene glycol 400+16% 2-hydroxypropyl-b-cyclodextrin. The compounds of Examples of the present invention were intraperitoneally administered at 30 mg/kg once a day for 4 weeks, and the CTLA-4 antibody (BioX Cell, cat. BE1031) was intraperitoneally administered at 10 mg/kg three times a week. A tumor growth curve was prepared using the tumor volume from the start date of drug administration to the end of the test. The results are shown in FIG. 2, and the tumor growth inhibition rates of the compounds of Examples to the control group are shown in Table 5.

[1] = target: EHMT2 (Euchromatic histone-lysine N-methyltransferase 2) (Homo sapiens (Human), UniProt Q96KQ7); test: EHMT2 enzyme inhibition, LANCE TR-FRET; assay type: biochemical; details: histone H3 peptide, 1 hour at room temperature
Chain of EHMT2 (Euchromatic histone-lysine N-methyltransferase 2) (Q96KQ7 whole entry): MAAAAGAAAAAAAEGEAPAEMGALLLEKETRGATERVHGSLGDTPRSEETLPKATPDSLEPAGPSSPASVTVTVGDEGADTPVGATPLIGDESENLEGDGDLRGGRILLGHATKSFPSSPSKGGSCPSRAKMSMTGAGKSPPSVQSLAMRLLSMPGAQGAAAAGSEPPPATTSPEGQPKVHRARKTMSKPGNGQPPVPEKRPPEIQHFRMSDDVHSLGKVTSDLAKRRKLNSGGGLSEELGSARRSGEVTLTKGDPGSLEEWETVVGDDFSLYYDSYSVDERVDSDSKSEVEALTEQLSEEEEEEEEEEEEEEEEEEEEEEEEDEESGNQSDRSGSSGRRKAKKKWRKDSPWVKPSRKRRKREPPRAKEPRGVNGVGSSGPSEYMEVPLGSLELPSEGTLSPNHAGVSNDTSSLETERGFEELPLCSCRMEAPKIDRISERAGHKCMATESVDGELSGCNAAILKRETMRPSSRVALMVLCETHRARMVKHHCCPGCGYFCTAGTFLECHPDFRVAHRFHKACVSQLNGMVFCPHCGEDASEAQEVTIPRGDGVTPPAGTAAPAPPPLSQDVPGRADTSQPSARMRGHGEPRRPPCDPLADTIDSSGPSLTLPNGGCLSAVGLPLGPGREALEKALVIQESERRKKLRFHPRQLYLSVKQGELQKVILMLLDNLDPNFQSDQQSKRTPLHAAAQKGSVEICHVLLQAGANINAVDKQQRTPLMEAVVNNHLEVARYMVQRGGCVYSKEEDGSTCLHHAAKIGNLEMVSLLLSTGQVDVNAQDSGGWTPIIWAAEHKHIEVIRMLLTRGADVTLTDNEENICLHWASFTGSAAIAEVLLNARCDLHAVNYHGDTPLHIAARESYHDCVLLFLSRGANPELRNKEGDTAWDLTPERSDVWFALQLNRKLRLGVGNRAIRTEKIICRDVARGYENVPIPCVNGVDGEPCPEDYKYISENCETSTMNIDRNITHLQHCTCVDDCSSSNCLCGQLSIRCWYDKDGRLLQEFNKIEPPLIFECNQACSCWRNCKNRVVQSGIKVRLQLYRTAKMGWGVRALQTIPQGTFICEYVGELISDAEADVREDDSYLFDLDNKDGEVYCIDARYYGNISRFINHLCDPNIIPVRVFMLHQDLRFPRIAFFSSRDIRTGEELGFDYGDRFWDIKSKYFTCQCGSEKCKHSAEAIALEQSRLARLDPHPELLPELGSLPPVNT
In short: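 EHMT2/G9a enzyme preincubated 10 min with SAM and compounds (1 nM–100 μM, 4× stocks), then reacted 1 hour at room temperature with biotinylated histone H3 peptide (2 μM, 4× stock). H3K9 methylation detected by Eu-antibody/ULight-streptavidin TR-FRET at 665 nm; background-subtracted activity expressed relative to 4% DMSO vehicle; IC50 calculated.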

[2] = tested on: pancreatic cancer cell line Miapaca 2; test: Cancer cell growth inhibition test, CellTiter-glo; assay type: cell-based; details: Homo sapiens, MIA PaCa-2, Miapaca 2 cells, 72 hours
Protocol: In order to confirm the effect of reducing cell viability by inhibiting EHMT2 by the compounds of Examples in cells, the effect of inhibiting cancer cell growth was analyzed using CellTiter-glo™ analysis (Promega, cat. G7573) method. Specifically, the amount of ATP in living cells was measured and IC50 values were calculated using software to compare the inhibitory effect of the compounds of Examples on cell viability. First, the pancreatic cancer cell line Miapaca 2 was placed in a 96-well cell culture plate at the density of 1×10^3 cells/well and cultured overnight, and then each well of the plate was treated with 1 nM to 100 μM of the compounds of Examples 1 to 89 at each concentration for 72 hours (The final concentration of DMSO in each well was 0.5% or less). CellTiter-glo 2.0 reagent was mixed with a medium at 20% of the amount of the medium, reacted at room temperature for 10 minutes, and then 80 μL of the mixture was transferred to each well of a 96-well plate, followed by measuring the degree of luminescence.

Miapaca2 xenograft model = test: Tumor growth inhibition in Miapaca2 xenograft model; assay type: in vivo, Athymic nude mouse; details: 20 mg/kg intraperitoneally once a day for 4 weeks
Protocol: In order to confirm the tumor growth inhibitory effect of the compounds of Examples according to the present invention in a xenograft model in which the human pancreatic cancer cell line was transplanted, a cancer growth inhibition experiment was conducted in the Miapaca2 xenograft model.
Specific experimental methods are as follows. The frozen Miapaca-2 cell line was thawed and cultured in DMEM (Dulbecco's modified Eagle's medium) supplemented with 10% FBS and 1% penicillin-streptomycin in a 37° C., 5% CO2 incubator. The thawed cells were cultured for more than one week, and subcultured at intervals of 2˜3 days, confirming that there was no infection with bacteria, yeast (cell image) and mycoplasma. The cells were stained with trypan blue, and those having a survival rate of 90% or more were used for transplantation. The cells were suspended using trypsin-EDTA and then suspended in a cold solution (PBS:matrigel=6:4). Miapaca-2 cells (4×10^6 cells/[…]) were subcutaneously transplanted under the right scapula of the Athymic nude mouse, which had been acclimated for about 1 week. From the 3rd day after the transplantation, tumor formation and growth were observed, and the volume of the tumor was calculated according to the following equation using the measured tumor length.
[Tumor volume=(a^2b)/2, a: short diameter, b: long diameter]
When the average tumor volume of all mice on the day after tumor transplantation was 80±20 mm^3, the mice were grouped by paired-matching. Drugs were dissolved in 40% polyethylene glycol 400+16% 2-hydroxypropyl-b-cyclodextrin. The drugs were intraperitoneally administered at 20 mg/kg once a day for 4 weeks. A tumor growth curve was prepared using the tumor volume from the start date of drug administration to the end of the test. The results are shown in FIG. 1, and the tumor growth inhibition rates of the compounds of Examples to the control group are shown in Table 4.

Row | IC50 [1] | IC50 [2] | Structure (SMILES) | Effect of combination with cancer immunotherapy agent (in words) (MC38 syngeneic model; combined with anti CTLA-4) | Tumor growth inhibition rate (TGI) (MC38 syngeneic model; compound alone, 30 mg/kg intraperitoneally once a day for 4 weeks) | Anticancer activity alone (in words) (MC38 syngeneic model; treated alone) | Tumor growth inhibition rate (TGI) (Miapaca2 xenograft model)
1 | < 0.1 µM | 0.655 µM | COc1cc2c(NC3CCN(C(C)C)CC3)nc(N3CCCCC3)nc2cc1C#CCCN(C)C [Example 3, 7-(4-(dimethylamino)-1-butyne-1-yl)-N-(1-isopropylpiperidine-4-yl)-6-methoxy-2-(piperidine-1-yl)quinazoline-4-amine] | enhancing the anticancer activity of a cancer immunotherapy agent | 3.00% | inhibits tumor growth even when treated alone | 42.47
2 | < 0.1 µM | 0.464 µM | COc1cc2c(NCCN(C)C)nc(N3CCCC3)nc2cc1C#CCCN1CCCC1 [Example 52, N1-(6-methoxy-2-(pyrrolidine-1-yl)-7-(4-(pyrrolidine-1-yl)-1-butyne-1-yl)quinazoline-4-yl)-N2,N2-dimethylethane-1,2-diamine] | – | – | – | 26.39
3 | < 0.1 µM | 0.307 µM | COc1cc2c(NC3CCN(C4CC4)CC3)nc(N(C)C)nc2cc1C#CCCN1CCCC1 [Example 55, N4-(1-cyclopropylpiperidine-4-yl)-6-methoxy-N2,N2-dimethyl-7-(4-(pyrrolidine-1-yl)-1-butyne-1-yl)quinazoline-2,4-diamine] | – | – | – | 31.80
4 | < 0.1 µM | 0.669 µM | COc1cc2c(NC3CCN(C(C)C)CC3)nc(N3CC[C@@H](F)C3)nc2cc1C#CCCN1CCCC1 [Example 60, (R)-2-(3-fluoropyrrolidine-1-yl)-N-(1-isopropylpiperidine-4-yl)-6-methoxy-7-(4-(pyrrolidine-1-yl)-1-butyne-1-yl)quinazoline-4-amine] | – | – | – | –

Reference: patent US20230365530A1, “QUINAZOLINE-2,4-DIAMINE DERIVATIVE AND PHARMACEUTICAL COMPOSITION FOR PREVENTING OR TREATING CANCER COMPRISING SAME AS ACTIVE INGREDIENT” (THE ASEAN FOUNDATION, priority 2020, published 2023)
